The values below come from publication PMC11350787, “Antimicrobial Properties and Cytotoxicity of LL-37-Derived Synthetic Peptides to Treat Orthopedic Infections” (Antibiotics, 2024).

Values after ≈ are worked out from the molar mass of the structure shown. Peptide text beside a SMILES is read from it.

One experiment concerns P. aeruginosa ATCC 27853. Kind of experiment: microbe, parasite or virus in culture. From the text: (§1) A total of 18 bacterial strains relevant to orthopedic infections were used for microbiological tests, including 8 ATCC (American Type Culture Collection, ATCC, Manassas, VA, USA) and 10 clinical isolates (CI) from the Laboratory of Clinical Chemistry and Microbiology, IRCCS Ospedale Galeazzi–Sant’Ambrogio of Milan (Italy) strain collection. The ATCC strains were used for the first screening (MIC/MBC) of all the AMPs produced, while the clinical isolates were used for further MIC/MBC assays on selected AMPs. Among CI, S. epidermidis GOI1153754-03-14 has been already characterized and used in previous studies. All the strains were stocked at −80°C and working stocks were stored at −20 °C. At the occurrence, the bacteria were resuscitated in Brain Hearth Infusion (BHI, Millipore, Milan, Italy) broth at 37 °C for 18 h from the working stocks.
(§2) To determine the minimum inhibitory concentration (MIC) and the minimum bactericidal concentration (MBC), ISO20776-1 and Clinical and Laboratory Standards Institute guidelines were followed. A commercial synthetic LL-37 (Aurogene, Rome, Italy) was used as the control in the MIC and MBC assays. A stock solution of each AMP was prepared at 600 µg/mL to achieve a final concentration of 300 µg/mL. […] The MIC was determined according to the aforementioned standard guidelines. The MBC was determined by plating 2 µL of culture from each well of the MIC plates on a Tryptic Soy Agar (TSA, Millipore, Milan, Italy) plate and incubated for 24 h at 37 °C. The concentration at which there was no growth was recorded as MBC. Each experiment was carried out in triplicate. Representative MIC and MBC values for vancomycin and gentamicin were assessed to offer a benchmark comparison for the AMPs. Quality control was conducted with Staphylococcus aureus ATCC 29,213 and vancomycin according to EUCAST guidelines.

The test system of the next experiment is S. aureus ATCC 43300. Kind of experiment: microbe, parasite or virus in culture.
From the text: as §1, §2

A further experiment relates to S. aureus ATCC 25923. Kind of experiment: microbe, parasite or virus in culture.
From the text: as §1, §2

The next experiment concerns E. coli ATCC 25922. Nature of the experiment: microbe, parasite or virus in culture.
From the text: as §1, §2

Experiment [1] has as its system S. epidermidis GOI1153754-03-14 (CI). Kind of experiment: microbe, parasite or virus in culture.
From the text: as §1, §2

A further experiment relates to S. aureus ATCC 49230. Nature of the experiment: microbe, parasite or virus in culture.
From the text: as §1, §2

Experiment [2] deals with S. epidermidis ATCC 35984. Kind of experiment: microbe, parasite or virus in culture.
From the text: as §1, §2

Experiment [3] has as its system S. epidermidis ATCC 14990. Kind of experiment: microbe, parasite or virus in culture.
From the text: as §1, §2

A further experiment has as its system S. aureus Sau89 (CI). The following applies: S. aureus Sau89 clinical isolate; triplicate.
From the text: as §1, §2

The test system of the next experiment is E. coli Eco53 (CI). The following applies: E. coli Eco53 clinical isolate; triplicate.
From the text: as §1, §2

A further experiment deals with S. aureus Sau221 (CI). The following applies: S. aureus Sau221 clinical isolate; triplicate.
From the text: as §1, §2

A further experiment relates to P. aeruginosa Pae2 (CI). To be noted: P. aeruginosa Pae2 clinical isolate; triplicate.
From the text: as §1, §2

Another experiment deals with E. coli Eco75 (CI). To be noted: E. coli Eco75 clinical isolate; triplicate.
From the text: as §1, §2

Another experiment relates to S. aureus Sau39 (CI). To be noted: S. aureus Sau39 clinical isolate; triplicate.
From the text: as §1, §2

In a further experiment the test system is P. aeruginosa Pae82 (CI). To be noted: P. aeruginosa Pae82 clinical isolate; triplicate.
From the text: as §1, §2

The test system of the next experiment is P. aeruginosa Pae61 (CI). The following applies: P. aeruginosa Pae61 clinical isolate; triplicate.
From the text: as §1, §2

A further experiment deals with E. coli Eco61 (CI). To be noted: E. coli Eco61 clinical isolate; triplicate.
From the text: as §1, §2

Turning to `CNC(C)C1CCC(N)C(OC2C(N)CC(N)C(OC3OCC(C)(O)C(NC)C3O)C2O)O1` (stereo not shown) [Gen, gentamicin], the “Susceptibility category by MIC (EUCAST clinical breakpoints tables, v. 14)” value with P. aeruginosa ATCC 27853 (P. aeruginosa 27853) was “S”; with S. aureus ATCC 25923 (S. aureus 25923), “S”; in the experiment on E. coli ATCC 25922 (E. coli 25922), “S”; in [1] (S. epidermidis GOI1153754-03-14), “R”. For the same molecule, the MBC was 2.5 µg/mL (≈ 5.23 µM) in the experiment on P. aeruginosa ATCC 27853 (Pseudomonas aeruginosa, ATCC27853, 24 h, read-out: Minimum Bactericidal Concentration (MBC)); 2.5 µg/mL (≈ 5.23 µM) in the experiment on S. aureus ATCC 43300 (Staphylococcus aureus, ATCC43300, 24 h, read-out: Minimum Bactericidal Concentration (MBC)); 2.5 µg/mL (≈ 5.23 µM) in the experiment with S. aureus ATCC 25923 (Staphylococcus aureus, ATCC25923, 24 h, read-out: Minimum Bactericidal Concentration (MBC)); 2.5 µg/mL (≈ 5.23 µM) in the experiment with E. coli ATCC 25922 (Escherichia coli, ATCC25922, 24 h, read-out: Minimum Bactericidal Concentration (MBC)); over 20 µg/mL in experiment [1] (Staphylococcus epidermidis, read-out: Minimum Bactericidal Concentration (MBC)). Further, the MIC was 0.6 µg/mL (≈ 1.26 µM) in the experiment on P. aeruginosa ATCC 27853 (Pseudomonas aeruginosa, ATCC27853, read-out: Minimum Inhibitory Concentration (MIC)); 0.6 µg/mL (≈ 1.26 µM) with S. aureus ATCC 43300 (Staphylococcus aureus, ATCC43300, read-out: Minimum Inhibitory Concentration (MIC)); 0.6 µg/mL (≈ 1.26 µM) in the experiment on S. aureus ATCC 25923 (Staphylococcus aureus, ATCC25923, read-out: Minimum Inhibitory Concentration (MIC)); 0.6 µg/mL (≈ 1.26 µM) with E. coli ATCC 25922 (Escherichia coli, ATCC25922, read-out: Minimum Inhibitory Concentration (MIC)); over 20 µg/mL in experiment [1] (Staphylococcus epidermidis, read-out: Minimum Inhibitory Concentration (MIC)). Moreover, the “Susceptibility category by MIC (EUCAST clinical breakpoints tables, version 14)” value in the experiment on S. aureus ATCC 43300 (S. aureus 43,300 as printed in text) was “S”.
Turning to `CC[C@H](C)[C@H](NC(=O)[C@H](CCCCN)NC(=O)[C@H](CCC(=O)O)NC(=O)[C@H](CCCCN)NC(=O)[C@@H](N)CO)C(=O)NCC(=O)N[C@@H](CCCCN)C(=O)N[C@@H](CCC(=O)O)C(=O)N[C@@H](Cc1ccccc1)C(=O)N[C@@H](CCCCN)C(=O)N[C@@H](CCCNC(=N)N)C(=O)N[C@H](C(=O)N[C@H](C(=O)N[C@@H](CCC(N)=O)C(=O)N[C@@H](CCCNC(=N)N)C(=O)N[C@H](C(=O)N[C@@H](CCCCN)C(=O)N[C@@H](CC(=O)O)C(=O)N[C@@H](Cc1ccccc1)C(=O)N[C@@H](CC(C)C)C(=O)N[C@@H](CCCNC(=N)N)C(=O)N[C@@H](CC(N)=O)C(=O)N[C@@H](CC(C)C)C(=O)N[C@H](C(N)=O)C(C)C)[C@@H](C)CC)C(C)C)[C@@H](C)CC` [SK-24] (H-SKEKIGKEFKRIVQRIKDFLRNLV-NH2), the “Minimum Inhibitory Concentration (MIC)” value was found to be 150.00 µg/mL with P. aeruginosa ATCC 27853 (ATCC 27853, 18 h); 150.00 µg/mL in the experiment with S. aureus ATCC 43300 (ATCC 43300, 18 h); 75.00 µg/mL in the experiment with S. aureus ATCC 49230 (ATCC 49230, 18 h); 150.00 µg/mL in the experiment on S. aureus ATCC 25923 (ATCC 25923, 18 h); 37.50 µg/mL in experiment [2] (ATCC 35984, 18 h); 18.75 µg/mL in [3] (ATCC 14990, 18 h). In addition, the “Minimum Inhibitory Concentration (MIC)” value in the experiment with E. coli ATCC 25922 (ATCC 25922, 18 h) was determined as 75.00 µg/mL. The “Minimum Bactericidal Concentration (MBC)” value with P. aeruginosa ATCC 27853 (ATCC 27853, 24 h) is 150.00 µg/mL; with S. aureus ATCC 43300 (ATCC 43300, 24 h) it was over 300.00 µg/mL; in the experiment on S. aureus ATCC 49230 (ATCC 49230, 24 h), over 300.00 µg/mL; with S. aureus ATCC 25923 (ATCC 25923, 24 h), over 300.00 µg/mL; in experiment [2] (ATCC 35984, 24 h) it was 300.00 µg/mL; in experiment [3] (ATCC 14990, 24 h) it was 150.00 µg/mL. The “Minimum Bactericidal Concentration (MBC)” value in the experiment on E. coli ATCC 25922 (ATCC 25922, 24 h) came out at 75.00 µg/mL.
In the case of `CC[C@H](C)[C@H](NC(=O)[C@H](CCCCN)NC(=O)[C@H](CCC(=O)O)NC(=O)[C@H](CCCCN)NC(=O)[C@H](CO)NC(=O)[C@H](CCCCN)NC(=O)[C@H](CCCNC(=N)N)NC(=O)[C@H](Cc1ccccc1)NC(=O)[C@H](Cc1ccccc1)NC(=O)[C@H](CC(=O)O)NC(=O)CNC(=O)[C@H](CC(C)C)NC(=O)[C@@H](N)CC(C)C)C(=O)NCC(=O)N[C@@H](CCCCN)C(=O)N[C@@H](CCC(=O)O)C(=O)N[C@@H](Cc1ccccc1)C(=O)N[C@@H](CCCCN)C(=O)N[C@@H](CCCNC(=N)N)C(=O)N[C@H](C(=O)N[C@H](C(=O)N[C@@H](CCC(N)=O)C(=O)N[C@@H](CCCNC(=N)N)C(=O)N[C@H](C(=O)N[C@@H](CCCCN)C(=O)N[C@@H](CC(=O)O)C(=O)N[C@@H](Cc1ccccc1)C(=O)N[C@@H](CC(C)C)C(=O)N[C@@H](CCCNC(=N)N)C(=O)N[C@@H](CC(N)=O)C(=O)N[C@@H](CC(C)C)C(=O)N[C@H](C(=O)N1CCC[C@H]1C(=O)N[C@@H](CCCNC(=N)N)C(=O)N[C@H](C(=O)N[C@@H](CCC(=O)O)C(=O)N[C@@H](CO)C(=O)O)[C@@H](C)O)C(C)C)[C@@H](C)CC)C(C)C)[C@@H](C)CC` [cLL-37, reference compound], the “Minimum Bactericidal Concentration (MBC)” value is recorded as over 300.00 µg/mL in the experiment on S. aureus Sau89 (CI); 300.00 µg/mL in the experiment on E. coli Eco53 (CI); over 300.00 µg/mL in the experiment on S. aureus Sau221 (CI); 75.00 µg/mL in the experiment on P. aeruginosa Pae2 (CI); 300.00 µg/mL with E. coli Eco75 (CI); over 300.00 µg/mL in the experiment with S. aureus Sau39 (CI). Moreover, the “Minimum Bactericidal Concentration (MBC)” value in the experiment with P. aeruginosa Pae82 (CI) is 75.00 µg/mL; with P. aeruginosa Pae61 (CI), 150.00 µg/mL; with E. coli Eco61 (CI) it was 75.00 µg/mL; with P. aeruginosa ATCC 27853 (P. aeruginosa 27853, plated on TSA, 24 h 37 °C, triplicate) it was 75.00 µg/mL; in the experiment with S. aureus ATCC 43300 (S. aureus 43300, plated on TSA, 24 h 37 °C, triplicate), over 300.00 µg/mL; in the experiment on S. aureus ATCC 49230 (S. aureus 49230, plated on TSA, 24 h 37 °C, triplicate) it was over 300.00 µg/mL. For the same molecule, the “Minimum Bactericidal Concentration (MBC)” value was over 300.00 µg/mL in the experiment with S. aureus ATCC 25923 (S. aureus 25923, plated on TSA, 24 h 37 °C, triplicate); over 300.00 µg/mL in experiment [2] (S. epidermidis 35984, plated on TSA, 24 h 37 °C, triplicate); 75.00 µg/mL in [3] (S. epidermidis 14990, 2 µL from MIC wells plated on TSA, 24 h 37 °C, triplicate); 75.00 µg/mL in the experiment with E. coli ATCC 25922 (E. coli 25922, plated on TSA, 24 h 37 °C, triplicate); over 300.00 µg/mL in experiment [1] (S. epidermidis GOI1153754-03-14 clinical isolate, triplicate). Moreover, the “Minimum Inhibitory Concentration (MIC)” value in the experiment with S. aureus Sau89 (CI) is over 300.00 µg/mL; in the experiment on E. coli Eco53 (CI), 37.50 µg/mL; in the experiment with S. aureus Sau221 (CI), over 300.00 µg/mL; in the experiment with P. aeruginosa Pae2 (CI) it was 75.00 µg/mL; in the experiment on E. coli Eco75 (CI), 37.50 µg/mL; in the experiment with S. aureus Sau39 (CI) it was 150.00 µg/mL. In addition, the “Minimum Inhibitory Concentration (MIC)” value with P. aeruginosa Pae82 (CI) came out at 37.50 µg/mL; in the experiment with P. aeruginosa Pae61 (CI), 37.50 µg/mL; in the experiment with E. coli Eco61 (CI) it was 37.50 µg/mL; in the experiment on P. aeruginosa ATCC 27853 (P. aeruginosa 27853, ISO20776-1/CLSI, triplicate) it was 37.50 µg/mL; in the experiment with S. aureus ATCC 43300 (S. aureus 43300, ISO20776-1/CLSI, triplicate) it was 75.00 µg/mL; in the experiment on S. aureus ATCC 49230 (S. aureus 49230, ISO20776-1/CLSI, triplicate), 75.00 µg/mL. In addition, the “Minimum Inhibitory Concentration (MIC)” value in the experiment on S. aureus ATCC 25923 (S. aureus 25923, ISO20776-1/CLSI, triplicate) is 37.50 µg/mL; in experiment [2] (S. epidermidis 35984, ISO20776-1/CLSI, triplicate) it was 9.38 µg/mL; in [3] (S. epidermidis 14990, ISO20776-1/CLSI, triplicate), 75.00 µg/mL.
